Laboratory results reported in US11246910B2, “Methods of treating immunological disorders using immunosuppressive compositions” (Singapore Health Services Pte Ltd, priority 2016, dated 2022).

Experiments:
[1] = test system: two HLA-mismatched UCB-MNCs; assay: Mixed lymphocyte reaction (MLR), cell-mediated cytotoxicity by LDH detection (in vitro GVHD model); assay type: cell-based, human; conditions: lowest concentration giving maximum repression of cytotoxicity in MLR (FIG. 3)
Protocol: MLR served as an in vitro GVHD model and was initiated by co-culturing two HLA-mismatched UCB-MNCs at 15:1 effector/target (E/T) ratios in […] medium (Stem Cell Technologies) for 20 hours in 37° C., 5% CO2 incubator. The mixed lymphocytes (ML) were treated with BM-MSCs by co-culture without transwell inserts (i.e. physical direct contact) or with transwell inserts (i.e. indirect bidirectional regulation via the two secretomes) or with BM-MSC-conditional medium. Transwell inserts were placed at 0.5 mm and 0.9 mm above the well bottom, and the 1-day old BM-MSC culture medium was used as conditional medium (1d-CM). Untreated MLR was used as a negative control to set the cell-mediated cytotoxicity baseline of the MLR. The cell-mediated cytotoxicity was measured by lactate dehydrogenase (LDH) cytotoxicity detection kit (Roche). Following the kit instruction, the detection plate was incubated in the dark for 20 minutes at room temperature, and absorbance was measured at 490 nm with 650 nm as reference wavelength using Benchmark Plus microplate spectrophotometer (Bio-Rad).
All the proteins and antibodies were purchased from Peprotech. For each molecule, the lowest working concentration that caused the maximum repression of cytotoxicity by MLR was used for further analysis. In order to determine the optimal combination of interested cytokines, the twelve molecules were arranged in a 2^12 fractional FD table (Table 3). There were twelve factors with two levels. Level-1 meant without addition of this interested molecule, level-2 meant addition of this interested molecule with optimal working concentration. Condition-1 without addition of any interested molecules served as negative control; Condition-16 with addition of full panel of interested molecules and MLR laid on MSCs served as positive control respectively.
Based on the maximal extend attenuating cell-mediated cytotoxicity, another 2^7 factorial FD (Table 4) was derived from Condition-6 in 2^12 fractional FD, which involved IL-10, OPG, CXCL5, CXCL6, CCL20 anti-CCL1 and anti-CCL24.
Similarly, a 2^4 full FD (Table 5) was further derived from Condition-6 in 2^7 fractional FD, which involved OPG, CXCL5, anti-CCL1 and anti-CCL24.

male ICR mice = assay: Side effect on neutrophil and red blood cell count; assay type: in vivo, mouse; conditions: day 1, 3, 7, 14 post-treatment (FIGS. 5B, 5C)
Protocol: (A) Body weight changes. NSG mice were treated with CXCL5 and anti-CCL24 antibody twice weekly with gradually increasing dose (3 mice were used in each group). (B & C) Side effect on neutrophil and red blood cell count. ICR mice treated with dPBS, CXCL5 and anti-CCL24 antibody were bled and a blood count was performed on day 1, day 3, day 7 and day 14 post-treatment (4 male mice were used for each group). (D & E & F) Liver and kidney toxicity. ICR mice were treated with dPBS, CXCL5 and anti-CCL24 antibody on day 0, day 4 and day 7. Mice peripheral blood by cheek bleeding and urine were harvested on day 1, day 5 and day 8. Alanine transaminase (ALT) and aspartate transaminase (AST or SGOT) concentration in plasma were determined by ALT and AST activity assay kit. Both alanine transaminase and aspartate transaminase are enzyme associated with the liver and are therefore used as clinical marker for liver health. Albumin creatinine ratio (ACR) in urine was determined by Mouse Albumin ELISA kit and Jaffe's reaction using Creatinine Colorimetric Assay kit (3 female ICR mice were used for each group).

DBA/1J mice with CIA = assay: Collagen-induced arthritis (CIA) mouse model; assay type: in vivo; conditions: treatment started on mice with mild arthritis (FIG. 21A)
Protocol: Arthritis was induced in 8 to 10 week-old DBA/1J mice following immunization with collagen and complete Freund's adjuvant (CFA) (Chondrex, USA). Complete Freund's adjuvant was prepared by mixing heat-inactivated mycobacterial strain H37RA in incomplete Freund's adjuvant (4 mg/mi). Lyophilized bovine type II collagen (Chondrex, USA) was dissolved overnight in acetic acid at 2 mg/ml. Complete Freund's adjuvant and collagen were mixed at a ratio of 1:1 to form an emulsion. 100 μg of collagen, which was then injected intradermally at the base of the tail. Mice were scored for arthritis weekly from day 30 after immunization. 50 ng/ml of CXCL5 was given twice/week to CIA mice for 3 consecutive weeks, to around day 40 to 50 post-induction, when mice started to show the arthritis symptoms. Mice treated with dPBS, bone marrow-derived mesenchymal stem cells (BM-MSCs; 5-10×10^6 cells/kg, single injection) and Prednisolone (Pred) (1 mg/kg/day for first 10 days, 0.5 mg/kg/day for the second 10 days) were used as positive and standard controls, respectively. Injection volume was normalized to the body weight of the mice. Mice were monitored for another 3 weeks post-treatment and then sacrificed for further analysis. Peripheral blood (PB) was collected on day 15 and day 42 post-treatment. Isolated blood cells and plasma were used for flow cytometry analysis and Luminex assay. […]

[2] = test system: DBA/2J mice with bleomycin-induced skin fibrosis; assay: Bleomycin-induced scleroderma (systemic sclerosis) mouse model; assay type: in vivo
Protocol: Skin fibrosis was induced in 6 to 8-week-old DBA/2J mice by subcutaneous injection of bleomycin (0.5 mg/mi) into defined areas of 1 cm^2 on the lower back every other day, for 21 days. After a 3-week bleomycin challenge, another 3-week treatment was followed. 50 ng/ml of CXCL5 was given twice/week for 3 consecutive weeks. Mice treated with dPBS, bone marrow-derived mesenchymal stem cells (BM-MSCs; 5-10×10^6 cells/kg, single injection) and Prednisolone (Pred) (1 mg/kg/day for first 10 days, 0.5 mg/kg/day for the second 10 days) were used as positive and standard controls. Mice were sacrificed on day 21 post-treatment and the injected skin and peripheral blood were processed for further analysis.
Lesioned skin areas were excised, fixed in 10% formalin, and embedded in paraffin. Sections (5 μm thick) were stained with hematoxylin & eosin (H&E). The dermal thickness was analyzed at 100-fold magnification by measuring the distance between the epidermal-dermal junction and the dermal-subcutaneous fat junction at four sites from the lesioned skin of each mouse. Dermal leukocyte infiltration was counted on randomly-taken photos with High Power Field (HPF) (400×). Five photos were taken for each mouse. The average cell number of these five photos was used for counting the leukocyte infiltration. Two independent examiners performed the evaluation.

Substance: CXCL5: epithelial-derived neutrophil-activating protein 78, a CXC chemokine; human source
- optimal in vitro working concentration [1]: 50 ng/mL
- neutrophil and RBC count (male ICR mice): did not alter neutrophil and RBC count
- disease activity index (DAI) (DBA/1J mice with CIA): 8.7±4.2
- leukocyte infiltration in the skin ([2]; FIG. 22B): 2.3±2.0 cells/HPF
- hematopoiesis in bone marrow ([2]; FIG. 23A): maintain the normal hematopoiesis in bone marrow
- effector cells in peripheral blood ([2]; FIG. 23B): suppressing the proliferation of monocytes and TH1 cells in peripheral blood
- skin thickness ([2]; after 3-week treatment (FIG. 22A)): 277.2±47.6 μm
